This note sets out measurements from patent US20060276464A1, “Diarylsulfone sulfonamides and use thereof” (Wyeth, priority 2005, published 2006).

Where two headings read alike, the source gives them in different places.

This data set deals with T1, SFRP-1 (Homo sapiens, UniProt Q8N474).
T1 sequence (Q8N474 32-314): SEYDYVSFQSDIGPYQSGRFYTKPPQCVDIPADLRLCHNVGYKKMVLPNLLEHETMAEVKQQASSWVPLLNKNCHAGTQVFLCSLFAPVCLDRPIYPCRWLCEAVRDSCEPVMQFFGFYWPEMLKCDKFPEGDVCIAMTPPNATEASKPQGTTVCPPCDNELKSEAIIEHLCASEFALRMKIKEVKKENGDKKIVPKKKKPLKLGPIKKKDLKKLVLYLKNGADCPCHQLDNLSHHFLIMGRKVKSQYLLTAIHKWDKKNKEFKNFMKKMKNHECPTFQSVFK
As to the kind of experiment: Cell-based assay for in vitro measurement of SFRP-1/SARP2 antagonist activity (U2OS cells co-transfected with 16x TCF-tk-Luciferase reporter, Wnt and hSFRP-1).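 On all read-outs here: U2OS cells co-transfected with a TCF-tk luciferase reporter, a Wnt vector, hSFRP-1 or empty vector and CMV-βgal, luciferase luminescence read in cell lysates alongside βgal activity.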 As to conditions: for fold induction at 20 µM / fold induction at 15 µM: U2OS. (In general: A reporter such as luciferase makes a cellular process visible.)

Where [1] appears, read: read-out: Fold Induction with SFRP-1, Conc 20 μM, with SFRP-1, fold induction over SFRP-1 control, single dose.
[2] abbreviates: read-out: Fold Induction without SFRP-1, Conc 20 μM, without SFRP-1, single dose.
The mark [3] stands for this setting: read-out: Fold Induction with SFRP-1, Conc 15 μM, with SFRP-1, fold induction over SFRP-1 control, single dose.
The mark [4] stands for this setting: read-out: Fold Induction without SFRP-1, Conc 15 μM, without SFRP-1, single dose.
[5] abbreviates: Conc 15 μM, with SFRP-1, fold induction over SFRP-1 control, single dose.

As to `Cc1ccc(S(=O)(=O)c2ccc(Cl)cc2)cc1S(=O)(=O)NC1Cc2ccccc2C1` [Example 255, 5-[(4-chlorophenyl)sulfonyl]-N-2,3-dihydro-1H-inden-2-yl-2-methylbenzenesulfonamide], the fold induction at 20 µM is, setting by setting: under setting [1], 2.6; under setting [2], 1.1.
On to `Cc1ccc(S(=O)(=O)c2ccc(Cl)cc2)cc1S(=O)(=O)N[C@H]1C[C@@H]1c1ccccc1` [Example 256, 5-[(4-chlorophenyl)sulfonyl]-2-methyl-N-[(1S,2R)-2-phenylcyclopropyl]benzenesulfonamide], for which the fold induction at 20 µM turned out to be 1.2 under setting [1] and 1 under setting [2].
On the same counts, the results for `Cc1ccc(S(=O)(=O)c2ccc(Cl)cc2)cc1S(=O)(=O)NC[C@H](C)c1ccccc1` [Example 257, 5-[(4-chlorophenyl)sulfonyl]-2-methyl-N-[(2R)-2-phenylpropyl]benzenesulfonamide] are 2.4 and 1.
For `O=S(=O)(NC1Cc2ccccc2C1)c1cccc(S(=O)(=O)c2ccccc2)c1` [Example 258, N-2,3-dihydro-1H-inden-2-yl-3-(phenylsulfonyl)benzenesulfonamide] the same measures were 1.2 and 1.
`O=S(=O)(N[C@H]1C[C@@H]1c1ccccc1)c1cccc(S(=O)(=O)c2ccccc2)c1` [Example 259, N-[(1S,2R)-2-phenylcyclopropyl]-3-(phenylsulfonyl)benzenesulfonamide]: the fold induction at 20 µM reads like this: under setting [1], 1; under setting [2], 1.1.
On the same counts, the results for `C[C@@H](CNS(=O)(=O)c1cccc(S(=O)(=O)c2ccccc2)c1)c1ccccc1` [Example 260, N-[(2R)-2-phenylpropyl]-3-(phenylsulfonyl)benzenesulfonamide] are 1.2 and 1.
In the case of `Cc1ccc(S(=O)(=O)c2ccc(F)cc2)cc1S(=O)(=O)NC[C@@H](C)c1ccccc1` [Example 261, 5-[(4-fluorophenyl)sulfonyl]-2-methyl-N-[(2S)-2-phenylpropyl]benzenesulfonamide], the fold induction at 15 µM is, setting by setting: under setting [3], 1.4; under setting [4], 0.9.
Turning to `Cc1ccc(S(=O)(=O)c2ccccc2)cc1S(=O)(=O)NC[C@@H](C)c1ccccc1` [Example 262, 2-methyl-N-[(2S)-2-phenylpropyl]-5-(phenylsulfonyl)benzenesulfonamide], the fold induction at 15 µM runs as follows: under setting [3], 1.6; under setting [4], 1.1.
On to `C[C@H](CNS(=O)(=O)c1cccc(S(=O)(=O)c2ccccc2)c1)c1ccccc1` [Example 263, N-[(2S)-2-phenylpropyl]-3-(phenylsulfonyl)benzenesulfonamide], for which the fold induction at 15 µM is, setting by setting: under setting [3], 0.8; under setting [4], 1.1.
Take `Cc1ccc(S(=O)(=O)c2ccc(C)c(S(=O)(=O)NC[C@@H](C)c3ccccc3)c2)cc1` [Example 264, 2-methyl-5-[(4-methylphenyl)sulfonyl]-N-[(2S)-2-phenylpropyl]benzenesulfonamide]: the “Fold Induction with SFRP-1” value under setting [5] was 1.7 fold. Further, the fold induction at 15 µM reads like this: under setting [3], 1.1; under setting [4], 0.9.
For `Cc1ccc(S(=O)(=O)c2ccc(Cl)cc2)cc1S(=O)(=O)NC[C@@H](C)c1ccccc1` [Example 265, 5-[(4-chlorophenyl)sulfonyl]-2-methyl-N-[(2S)-2-phenylpropyl]benzenesulfonamide], the “Fold Induction with SFRP-1” value under setting [5] is on record as 1.2 fold. Also, the “Fold Induction without SFRP-1” value (Conc 15 μM, without SFRP-1, single dose) came to 1 fold. Also, the fold induction at 15 µM was found to be 1.1 under setting [3] and 1.1 under setting [4].
As for `CCc1ccc(S(=O)(=O)c2ccccc2)cc1S(=O)(=O)NC1Cc2ccccc2C1` [Example 266, N-2,3-dihydro-1H-inden-2-yl-2-ethyl-5-(phenylsulfonyl)benzenesulfonamide], the fold induction at 15 µM is, setting by setting: under setting [3], 2.7; under setting [4], 1.2.
Take `CCc1ccc(S(=O)(=O)c2ccccc2)cc1S(=O)(=O)N[C@H]1C[C@@H]1c1ccccc1` [Example 267, 2-ethyl-N-[(1S,2R)-2-phenylcyclopropyl]-5-(phenylsulfonyl)benzenesulfonamide]: the fold induction at 15 µM under setting [3] was 2 and the fold induction at 15 µM under setting [4] amounted to 1.2.
On the same counts, the results for `CCc1ccc(S(=O)(=O)c2ccccc2)cc1S(=O)(=O)NC[C@H](C)c1ccccc1` [Example 268, 2-ethyl-N-[(2R)-2-phenylpropyl]-5-(phenylsulfonyl)benzenesulfonamide] are 3.6 and 1.1.
On the same counts, the results for `COc1ccc(S(=O)(=O)c2ccccc2)cc1S(=O)(=O)NC1Cc2ccccc2C1` [Example 269, N-2,3-dihydro-1H-inden-2-yl-2-methoxy-5-(phenylsulfonyl)benzenesulfonamide] are 1.4 and 1.2.
On the same counts, the results for `COc1ccc(S(=O)(=O)c2ccccc2)cc1S(=O)(=O)N[C@H]1C[C@@H]1c1ccccc1` [Example 270, 2-methoxy-N-[(1S,2R)-2-phenylcyclopropyl]-5-(phenylsulfonyl)benzenesulfonamide] are 1.5 and 1.2.
Regarding `COc1ccc(S(=O)(=O)c2ccccc2)cc1S(=O)(=O)NC[C@H](C)c1ccccc1` [Example 271, 2-methoxy-N-[(2R)-2-phenylpropyl]-5-(phenylsulfonyl)benzenesulfonamide], the fold induction at 15 µM reads like this: under setting [3], 1.7; under setting [4], 1.2.
On the same counts, the results for `COc1ccc(CCN(C)S(=O)(=O)c2cc(S(=O)(=O)c3ccccc3)ccc2C)cc1OC` [Example 272, N-[2-(3,4-dimethoxyphenyl)ethyl]-N,2-dimethyl-5-(phenylsulfonyl)benzenesulfonamide] are 0.9 and 1.
As for `C=CCN(CCc1ccc(OC)c(OC)c1)S(=O)(=O)c1cc(S(=O)(=O)c2ccccc2)ccc1C` [Example 273, N-allyl-N-[2-(3,4-dimethoxyphenyl)ethyl]-2-methyl-5-(phenylsulfonyl)benzenesulfonamide], the fold induction at 15 µM under setting [3] is 0.9 and the fold induction at 15 µM under setting [4] is 1.
On the same counts, the results for `C#CCN(CCc1ccc(OC)c(OC)c1)S(=O)(=O)c1cc(S(=O)(=O)c2ccccc2)ccc1C` [Example 274, N-[2-(3,4-dimethoxyphenyl)ethyl]-2-methyl-5-(phenylsulfonyl)-N-prop-2-ynylbenzenesulfonamide] are 2 and 1.
In the case of `Cc1ccc(S(=O)(=O)c2ccc(C)c(S(=O)(=O)N(C)CCc3ccccc3F)c2)cc1` [Example 275, N-[2-(2-fluorophenyl)ethyl]-N,2-dimethyl-5-[(4-methylphenyl)sulfonyl]benzenesulfonamide], the fold induction at 15 µM worked out at 0.8 under setting [3] and 0.8 under setting [4].
`C=CCN(CCc1ccccc1F)S(=O)(=O)c1cc(S(=O)(=O)c2ccc(C)cc2)ccc1C` [Example 276, N-allyl-N-[2-(2-fluorophenyl)ethyl]-2-methyl-5-[(4-methylphenyl)sulfonyl]benzene sulfonamide]: the fold induction at 15 µM came out at 0.8 under setting [3] and 1 under setting [4].
